Reference: patent US20250197442A1, “Peptide Synthesis in Aqueous Solution” (priority 2023, published 2025)

Details: for amount of Tween 80 required to dissolve the Fmoc protected amino acid, relative to its amount: aqueous solution, room temperature; for solubility in aqueous solutions: without the dissolving procedure
Procedure: A process for dissolving Fmoc-AA in Aqueous Solution was developed and it is summarized as follows (FIG. 9). Firstly, a non-ionic surfactant is dissolved in a small portion of a water-miscible organic solvent, creating Solution A. Secondly, FAA is dissolved in another small portion of a water-miscible organic solvent, creating Solution B. These two solutions, Solution A and Solution B, are thoroughly mixed to create a homogeneous mixture. This mixture is then added vigorously to an aqueous solvent.
To enable the utilization of Fmoc-AA as a building block in an aqueous solution, a specialized procedure has been developed to render Fmoc-AA soluble in aqueous solvents. The present invention devised a method to render Fmoc-AA soluble in water. First, none ionic surfactant is dissolved in a small amount of water-mixable organic solution, creating solution A, and then secondly, a Fmoc-AA is dissolved in a small amount of water-mixable organic solvent to create solution B, Solution A is thoroughly mixed with Solution B. The resulting mixture is then vigorously added to an aqueous solution. Fmoc-AA aqueous solution is obtained (FIG. 9),
4 grams of Tween 80 are added to 2 ml of DMSO to create solution A. and 1 grams of Fmoc-AA are added to 5 ml of DMSO to create solution B, solution A and solution B are mixed thoroughly, and then the resulting mixture is added to 88 ml of water to obtain a 1% concentration of Fmoc-AA in aqueous solution.
• Step 1: Dissolve 1.08 grams of Fmoc-Gly in 6.13 ml of DMSO solvent. Next, add 6.00 milliliters (mL) of a 70% Tween 80 in DMSO solution to the Fmoc-Gly DMSO solution. • Step 2: Pour this mixture into 87 mL of deionized (DI) water.
Dissolve 0.18 grams of Fmoc-Phe in 1.98 DMSO of solvent. Next, add 2.26 milliliters (mL) of a 70% Tween 80 in DMSO solution to Fmoc-Phe solution.
Transfer this mixture into 20.38 mL of deionized water.
Gradually, add 70% T dropwise until the solution becomes clear.
This process yields a solution containing 0.72% Fmoc-Phe in an aqueous solution with 10.80% DMSO.

Structure (SMILES)	amount of Tween 80 required to dissolve the Fmoc protected amino acid, relative to its amount	effect of raising the temperature on solubility in aqueous solution (raised temperature)	solubility in aqueous solutions
O=C(N[C@@H](Cc1ccccc1)C(=O)O)OCC1c2ccccc2-c2ccccc21 [Fmoc-Phe, Fmoc-Phenylalanine]	approximately eight times	significantly increase the solubility	poor solubility
O=C(O)CNC(=O)OCC1c2ccccc2-c2ccccc21 [Fmoc-Gly, Fmoc-Glycine]	approximately four times		poor solubility
